Measurements published in ChEMBL document CHEMBL4251601 (Eur J Med Chem, 2018).

Test system: not listed separately
Assay: AUC (0 to infinity) in Sprague-Dawley rat at 2 mg/kg, iv administered as single dose by LC-MS/MS analysis
Format: ADME, organism-based
Set-up: dose 2 mg/kg, route intravenous, time infinity
Conditions: Sprague-Dawley, in vivo

Compound	AUC(0-inf)
CC1=Nc2c(F)cc(-c3nc(Nc4ccc(C5CCNCC5)cn4)ncc3F)cc2C12CCCC2	1370 ng·h/mL
CCC1(CC)C(C)=Nc2c(F)cc(-c3nc(Nc4ccc(N5CCNCC5)cn4)ncc3F)cc21	270 ng·h/mL
CCC1(C)C(C)=Nc2c(F)cc(-c3nc(Nc4ccc(C5CCN(C)CC5)cn4)ncc3F)cc21 (centres undefined)	447 ng·h/mL

Molecular target: Cyclin-dependent kinase 4/cyclin D1 (Homo sapiens, UniProt P11802)
Assay: Inhibition of CDK4/Cyclin-D1 (unknown origin) using histone-H1 as substrate after 90 mins by ADP-Glo assay
Format: protein-complex assay
Conditions: not given

Cyclin-dependent kinase 4/cyclin D1, sequence (P11802 whole entry): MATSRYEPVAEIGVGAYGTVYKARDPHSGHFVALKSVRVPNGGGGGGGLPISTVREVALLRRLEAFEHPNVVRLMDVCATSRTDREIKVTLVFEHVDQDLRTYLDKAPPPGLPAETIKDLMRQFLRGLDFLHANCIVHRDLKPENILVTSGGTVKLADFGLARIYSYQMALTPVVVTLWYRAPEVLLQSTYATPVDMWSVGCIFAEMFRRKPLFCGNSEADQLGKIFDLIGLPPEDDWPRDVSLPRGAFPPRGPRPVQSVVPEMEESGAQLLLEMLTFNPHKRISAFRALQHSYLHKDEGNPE
Cyclin-dependent kinase 4/cyclin D1, sequence (P24385 whole entry, further chain): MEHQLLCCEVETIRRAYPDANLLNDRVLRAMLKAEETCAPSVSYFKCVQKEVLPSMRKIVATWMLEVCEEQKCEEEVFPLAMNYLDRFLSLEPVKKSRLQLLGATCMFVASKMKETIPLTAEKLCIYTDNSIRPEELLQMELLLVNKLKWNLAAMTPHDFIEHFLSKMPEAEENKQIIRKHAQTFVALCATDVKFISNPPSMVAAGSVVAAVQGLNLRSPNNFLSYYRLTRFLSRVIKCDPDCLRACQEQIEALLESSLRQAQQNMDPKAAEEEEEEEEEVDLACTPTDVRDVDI

Compound	IC50
CC1=Nc2c(F)cc(-c3nc(Nc4ccc(C5CCNCC5)cn4)ncc3F)cc2C12CCCC2	8 nM
CCC1(CC)C(C)=Nc2c(F)cc(-c3nc(Nc4ccc(N5CCNCC5)cn4)ncc3F)cc21	3 nM
CCC1(C)C(C)=Nc2c(F)cc(-c3nc(Nc4ccc(C5CCN(C)CC5)cn4)ncc3F)cc21 (centres undefined)	16 nM

Species on record: Homo sapiens
Assay: Selectivity ratio of IC50 for CDK1/Cyclin-A2 (unknown origin) to IC50 for CDK6/Cyclin-D3 (unknown origin)
Conditions: not given

Compound	Ratio IC50
CC1=Nc2c(F)cc(-c3nc(Nc4ccc(C5CCNCC5)cn4)ncc3F)cc2C12CCCC2	818
CCC1(CC)C(C)=Nc2c(F)cc(-c3nc(Nc4ccc(N5CCNCC5)cn4)ncc3F)cc21	27
CCC1(C)C(C)=Nc2c(F)cc(-c3nc(Nc4ccc(C5CCN(C)CC5)cn4)ncc3F)cc21 (centres undefined)	14

Test system: not listed separately
Assay: Oral bioavailability in Sprague-Dawley rat at 5 mg/kg administered as single dose by LC-MS/MS analysis
Format: ADME, organism-based
Conditions: Sprague-Dawley, in vivo

Compound	bioavailability
CC1=Nc2c(F)cc(-c3nc(Nc4ccc(C5CCNCC5)cn4)ncc3F)cc2C12CCCC2	29%
CCC1(CC)C(C)=Nc2c(F)cc(-c3nc(Nc4ccc(N5CCNCC5)cn4)ncc3F)cc21	16%
CCC1(C)C(C)=Nc2c(F)cc(-c3nc(Nc4ccc(C5CCN(C)CC5)cn4)ncc3F)cc21 (centres undefined)	28%

Test system: not listed separately
Assay: Cmax in Sprague-Dawley rat at 5 mg/kg, po administered as single dose by LC-MS/MS analysis
Format: ADME, organism-based
Set-up: dose 5 mg/kg, route oral
Conditions: in vivo

Compound	Cmax
CC1=Nc2c(F)cc(-c3nc(Nc4ccc(C5CCNCC5)cn4)ncc3F)cc2C12CCCC2	62.1 ng/mL
CCC1(CC)C(C)=Nc2c(F)cc(-c3nc(Nc4ccc(N5CCNCC5)cn4)ncc3F)cc21	13.7 ng/mL
CCC1(C)C(C)=Nc2c(F)cc(-c3nc(Nc4ccc(C5CCN(C)CC5)cn4)ncc3F)cc21 (centres undefined)	22.3 ng/mL

Test system: not listed separately
Assay: Half life in Sprague-Dawley rat at 2 mg/kg, iv administered as single dose by LC-MS/MS analysis
Format: ADME, organism-based
Conditions: in vivo

Compound	half-life
CC1=Nc2c(F)cc(-c3nc(Nc4ccc(C5CCNCC5)cn4)ncc3F)cc2C12CCCC2	8.6 h
CCC1(CC)C(C)=Nc2c(F)cc(-c3nc(Nc4ccc(N5CCNCC5)cn4)ncc3F)cc21	3 h
CCC1(C)C(C)=Nc2c(F)cc(-c3nc(Nc4ccc(C5CCN(C)CC5)cn4)ncc3F)cc21 (centres undefined)	7 h

Molecular target: CDK6/cyclin D3 (Homo sapiens, UniProt Q00534)
Assay: Inhibition of CDK6/Cyclin-D3 (unknown origin) using histoneH1 as substrate after 90 mins by ADP-Glo assay
Format: protein-complex assay
Conditions: not given

CDK6/cyclin D3, sequence (P30281 whole entry): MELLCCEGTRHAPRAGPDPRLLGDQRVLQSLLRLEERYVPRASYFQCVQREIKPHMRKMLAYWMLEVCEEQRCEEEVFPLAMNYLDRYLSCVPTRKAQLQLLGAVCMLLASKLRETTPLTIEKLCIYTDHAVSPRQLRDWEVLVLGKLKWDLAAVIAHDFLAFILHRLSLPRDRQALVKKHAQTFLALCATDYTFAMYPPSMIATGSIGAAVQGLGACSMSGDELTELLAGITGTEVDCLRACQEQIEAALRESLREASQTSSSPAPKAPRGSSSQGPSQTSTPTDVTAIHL
CDK6/cyclin D3, sequence (Q00534 whole entry): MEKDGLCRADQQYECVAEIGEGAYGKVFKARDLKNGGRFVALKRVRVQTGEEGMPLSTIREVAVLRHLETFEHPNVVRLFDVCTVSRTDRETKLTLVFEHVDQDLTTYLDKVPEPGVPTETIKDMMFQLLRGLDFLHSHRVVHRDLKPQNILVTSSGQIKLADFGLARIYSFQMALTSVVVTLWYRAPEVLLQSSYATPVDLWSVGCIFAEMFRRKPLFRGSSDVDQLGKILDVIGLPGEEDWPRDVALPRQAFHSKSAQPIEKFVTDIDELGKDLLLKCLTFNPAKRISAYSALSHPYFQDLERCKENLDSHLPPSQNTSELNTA

Compound	IC50
CC1=Nc2c(F)cc(-c3nc(Nc4ccc(C5CCNCC5)cn4)ncc3F)cc2C12CCCC2	0.4 nM
CCC1(CC)C(C)=Nc2c(F)cc(-c3nc(Nc4ccc(N5CCNCC5)cn4)ncc3F)cc21	3 nM
CCC1(C)C(C)=Nc2c(F)cc(-c3nc(Nc4ccc(C5CCN(C)CC5)cn4)ncc3F)cc21 (centres undefined)	9 nM

Molecular target: CDK1/Cyclin A (Homo sapiens, UniProt P06493)
Assay: Inhibition of CDK1/Cyclin-A2 (unknown origin) using histone-H1 as substrate after 90 mins by ADP-Glo assay
Format: protein-complex assay
Conditions: not given

CDK1/Cyclin A, sequence (P06493 whole entry): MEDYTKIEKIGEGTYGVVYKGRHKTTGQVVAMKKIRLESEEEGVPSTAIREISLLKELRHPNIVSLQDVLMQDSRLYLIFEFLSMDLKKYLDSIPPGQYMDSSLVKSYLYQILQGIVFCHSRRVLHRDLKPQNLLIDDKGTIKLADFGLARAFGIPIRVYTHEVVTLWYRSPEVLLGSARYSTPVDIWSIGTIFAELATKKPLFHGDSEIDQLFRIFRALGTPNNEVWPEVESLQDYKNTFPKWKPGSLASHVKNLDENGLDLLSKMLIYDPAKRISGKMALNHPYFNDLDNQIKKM
CDK1/Cyclin A, sequence (P20248 whole entry, further chain): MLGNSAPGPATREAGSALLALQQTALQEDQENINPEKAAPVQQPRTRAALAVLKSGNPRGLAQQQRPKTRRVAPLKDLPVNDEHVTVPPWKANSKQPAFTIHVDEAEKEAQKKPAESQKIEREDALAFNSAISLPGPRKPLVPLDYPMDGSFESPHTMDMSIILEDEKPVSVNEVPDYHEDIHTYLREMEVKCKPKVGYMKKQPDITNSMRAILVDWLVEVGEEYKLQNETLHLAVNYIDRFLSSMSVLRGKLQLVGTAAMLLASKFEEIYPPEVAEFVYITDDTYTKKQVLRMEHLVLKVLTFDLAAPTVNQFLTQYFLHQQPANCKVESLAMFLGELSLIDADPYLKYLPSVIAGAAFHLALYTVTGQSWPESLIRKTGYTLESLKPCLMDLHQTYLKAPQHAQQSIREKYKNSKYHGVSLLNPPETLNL

Compound	IC50
CCC1(C)C(C)=Nc2c(F)cc(-c3nc(Nc4ccc(C5CCN(C)CC5)cn4)ncc3F)cc21 (centres undefined)	131 nM

Test system: not listed separately
Assay: Clearance in Sprague-Dawley rat at 2 mg/kg, iv administered as single dose by LC-MS/MS analysis
Format: ADME, organism-based
Conditions: in vivo

Compound	clearance
CC1=Nc2c(F)cc(-c3nc(Nc4ccc(C5CCNCC5)cn4)ncc3F)cc2C12CCCC2	24.6 mL/min/kg
CCC1(CC)C(C)=Nc2c(F)cc(-c3nc(Nc4ccc(N5CCNCC5)cn4)ncc3F)cc21	125 mL/min/kg
CCC1(C)C(C)=Nc2c(F)cc(-c3nc(Nc4ccc(C5CCN(C)CC5)cn4)ncc3F)cc21 (centres undefined)	77.8 mL/min/kg

Test system: not listed separately
Assay: AUC (0 to 24 hrs) in Sprague-Dawley rat at 5 mg/kg, po administered as single dose by LC-MS/MS analysis
Format: ADME, organism-based
Set-up: time < 24 hr, dose 5 mg/kg, route oral
Conditions: in vivo

Compound	AUC(0-t) at 24 h
CC1=Nc2c(F)cc(-c3nc(Nc4ccc(C5CCNCC5)cn4)ncc3F)cc2C12CCCC2	867 ng·h/mL
CCC1(CC)C(C)=Nc2c(F)cc(-c3nc(Nc4ccc(N5CCNCC5)cn4)ncc3F)cc21	106 ng·h/mL
CCC1(C)C(C)=Nc2c(F)cc(-c3nc(Nc4ccc(C5CCN(C)CC5)cn4)ncc3F)cc21 (centres undefined)	287 ng·h/mL

Test system: not listed separately
Assay: Volume of distribution at steady state in Sprague-Dawley rat at 2 mg/kg, iv administered as single dose by LC-MS/MS analysis
Format: ADME, organism-based
Conditions: in vivo, read-out: Vdss

Compound	Vd
CC1=Nc2c(F)cc(-c3nc(Nc4ccc(C5CCNCC5)cn4)ncc3F)cc2C12CCCC2	15.6 L/kg
CCC1(CC)C(C)=Nc2c(F)cc(-c3nc(Nc4ccc(N5CCNCC5)cn4)ncc3F)cc21	28.1 L/kg
CCC1(C)C(C)=Nc2c(F)cc(-c3nc(Nc4ccc(C5CCN(C)CC5)cn4)ncc3F)cc21 (centres undefined)	40.1 L/kg

Test system: not listed separately
Assay: AUC (0 to 24 hrs) in Sprague-Dawley rat at 2 mg/kg, iv administered as single dose by LC-MS/MS analysis
Format: ADME, organism-based
Set-up: dose 2 mg/kg, time < 24 hr, route intravenous
Conditions: in vivo

Compound	AUC(0-t) at 24 h
CC1=Nc2c(F)cc(-c3nc(Nc4ccc(C5CCNCC5)cn4)ncc3F)cc2C12CCCC2	1200 ng·h/mL
CCC1(CC)C(C)=Nc2c(F)cc(-c3nc(Nc4ccc(N5CCNCC5)cn4)ncc3F)cc21	256 ng·h/mL
CCC1(C)C(C)=Nc2c(F)cc(-c3nc(Nc4ccc(C5CCN(C)CC5)cn4)ncc3F)cc21 (centres undefined)	404 ng·h/mL
